The results in this text go back to PMC7413254 (Nature Communications, 2020).

Format in all cases: cell-based
Assay [1] has as its target T1, PfCRT^Dd2 (Plasmodium falciparum, UniProt Q9N623, A220S/I356T/K76T/M74I/N326S/N75E/Q271E/R371I). As to the kind of experiment: [3H]CQ uptake into Xenopus oocytes, cis-inhibition by unlabelled solute. The settings on record: PfCRTDd2 oocytes, background [3H]CQ accumulation subtracted, normalised to oocyte type control. In a few lines: (§1)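 Washed oocytes (ten per treatment) were exposed to label in pH 5.5 ND96 for 1.5 h at 27.5 °C. Buffer was then removed, cells rinsed in ice-cold ND96, lysed in SDS and counted.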

Assay [2] addresses T2, PfCRT^Ecu1110 (Plasmodium falciparum, UniProt Q9N623, A220S/I356L/K76T/N326D). Described as above. The settings on record: for PfCRT-mediated [3H]CQ transport, cis-inhibition (% PfCRTEcu1110 control): PfCRTEcu1110 oocytes, background [3H]CQ accumulation subtracted, normalised to oocyte type control; for [3H]CQ transport (% PfCRTEcu1110 control), cis-inhibition, PfCRTEcu1110: PfCRT-mediated component (background subtracted), sheet title says normalised to PfCRTDd2 control, mean ± SEM, SEM. A digest of the protocol: as §1

Assay [3] concerns the target PfCRT^3D7 (Plasmodium falciparum, UniProt Q8IBZ9). In words: cell-based. The settings on record: PfCRT3D7 oocytes, normalised to oocyte type control. In a few lines: (§2)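 Transport measured in Xenopus oocytes expressing the transporters, 1.5 h at 27.5 °C in ND96 pH 5.5 unless noted. For trans-stimulation, VF-6 injected in 25 nL ND96 at pH 5.0–7.0 or Na^+-free (choline) buffer; intracellular levels based on ~400 nL oocyte volume. Ten oocytes per treatment, ≥4 experiments.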

In assay [4] the target is T1, PfCRT^Dd2. As to the kind of experiment: cell-based. The settings on record: for PfCRT-mediated [3H]CQ transport, trans-stimulation (% PfCRTDd2 control): PfCRTDd2 oocytes, normalised to oocyte type control; for [3H]CQ transport (% PfCRTDd2 control), trans-stimulation, PfCRTDd2: PfCRT-mediated component (background subtracted), mean ± SEM, SEM. A digest of the protocol: as §2

The target of assay [5] is T2, PfCRT^Ecu1110. As to the kind of experiment: cell-based. The note with it: for PfCRT-mediated [3H]CQ transport, trans-stimulation (% PfCRTEcu1110 control): PfCRTEcu1110 oocytes, normalised to oocyte type control; for [3H]CQ transport (% PfCRTDd2 control), trans-stimulation, PfCRTEcu1110: PfCRT-mediated component (background subtracted), sheet title says normalised to PfCRTDd2 control, mean ± SEM, SEM. A digest of the protocol:
as §2

Where [6] appears, read: [test solute]i = 5 mM (intracellular).
Where [7] appears, read: [test solute]i = 45 mM (intracellular; 30 mM for some solutes due to solubility).
Setting [8] is: [test solute]i = 5 mM (injected).
The mark [9] stands for this setting: [test solute]i = 45 mM (30 mM for some solutes due to solubility).

Chain of PfCRT^3D7 (Q8IBZ9 59-398): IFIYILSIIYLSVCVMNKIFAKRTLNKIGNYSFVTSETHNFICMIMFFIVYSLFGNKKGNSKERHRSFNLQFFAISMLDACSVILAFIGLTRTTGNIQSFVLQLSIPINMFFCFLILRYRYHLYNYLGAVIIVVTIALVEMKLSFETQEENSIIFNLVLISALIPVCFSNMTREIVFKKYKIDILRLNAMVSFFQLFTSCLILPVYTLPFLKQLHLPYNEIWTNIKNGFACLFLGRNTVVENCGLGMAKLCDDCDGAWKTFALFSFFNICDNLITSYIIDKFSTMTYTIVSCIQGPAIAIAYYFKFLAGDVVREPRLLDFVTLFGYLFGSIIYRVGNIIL
T1 sequence (Q9N623 whole entry A220S/I356T/K76T/M74I/N326S/N75E/Q271E/R371I): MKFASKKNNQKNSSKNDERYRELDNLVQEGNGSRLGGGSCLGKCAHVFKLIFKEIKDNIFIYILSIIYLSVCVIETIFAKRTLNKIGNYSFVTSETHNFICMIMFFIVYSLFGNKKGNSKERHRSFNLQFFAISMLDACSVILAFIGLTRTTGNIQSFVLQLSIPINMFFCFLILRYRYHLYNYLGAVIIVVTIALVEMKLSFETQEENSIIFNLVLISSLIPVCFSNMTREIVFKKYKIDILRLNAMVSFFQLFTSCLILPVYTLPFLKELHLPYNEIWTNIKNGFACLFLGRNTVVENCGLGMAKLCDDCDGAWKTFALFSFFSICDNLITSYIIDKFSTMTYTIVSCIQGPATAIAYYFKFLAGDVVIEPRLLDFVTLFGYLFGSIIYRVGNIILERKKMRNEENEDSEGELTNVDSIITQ
T2 sequence (Q9N623 whole entry A220S/I356L/K76T/N326D): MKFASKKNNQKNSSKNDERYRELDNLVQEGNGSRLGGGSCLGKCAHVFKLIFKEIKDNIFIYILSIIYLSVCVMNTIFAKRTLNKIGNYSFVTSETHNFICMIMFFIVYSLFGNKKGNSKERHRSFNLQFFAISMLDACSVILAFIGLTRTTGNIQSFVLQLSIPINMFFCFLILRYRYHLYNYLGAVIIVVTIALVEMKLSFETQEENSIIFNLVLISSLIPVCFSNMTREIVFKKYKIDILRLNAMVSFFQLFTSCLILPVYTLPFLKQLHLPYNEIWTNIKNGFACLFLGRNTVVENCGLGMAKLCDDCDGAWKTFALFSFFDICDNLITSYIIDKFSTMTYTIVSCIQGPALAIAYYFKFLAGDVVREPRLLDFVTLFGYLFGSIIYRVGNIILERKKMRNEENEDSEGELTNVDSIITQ

In the case of VDEVGG [VG-6], the “PfCRT-mediated [3H]CQ transport, cis-inhibition (% PfCRTDd2 control)” value in assay [1] ([test solute] = 0.5 mM) amounted to 55 ± 1.8 % PfCRTDd2 control; in assay [1] ([test solute] = 1 mM) it was 44 ± 2.7 % PfCRTDd2 control; in assay [1] ([test solute] = 2 mM), 38 ± 1.3 % PfCRTDd2 control. Moreover, the “PfCRT-mediated [3H]CQ transport, cis-inhibition (% PfCRTEcu1110 control)” value in assay [2] ([test solute] = 0.5 mM) was found to be 61 ± 3.5 % PfCRTEcu1110 control; in assay [2] ([test solute] = 1 mM), 51 ± 2.6 % PfCRTEcu1110 control; in assay [2] ([test solute] = 2 mM) it was 39 ± 1.4 % PfCRTEcu1110 control. Moreover, the “[3H]CQ transport (% PfCRTEcu1110 control), cis-inhibition, PfCRTEcu1110” value is recorded as 16 ± 0.1 % PfCRTEcu1110 control in assay [2] ([test solute] = 1 mM) and 12 ± 0.02 % PfCRTEcu1110 control in assay [2] ([test solute] = 2 mM). Moreover, the “PfCRT-mediated [3H]CQ transport, trans-stimulation (% PfCRT3D7 control)” value worked out at 140 ± 4.4 % PfCRT3D7 control in assay [3] (setting [6]) and 190 ± 3.6 % PfCRT3D7 control in assay [3] (setting [7]). Further, the “PfCRT-mediated [3H]CQ transport, trans-stimulation (% PfCRTDd2 control)” value was determined as 102 ± 4.7 % PfCRTDd2 control in assay [4] (setting [6]) and 112 ± 0.9 % PfCRTDd2 control in assay [4] (setting [7]). In addition, the “[3H]CQ transport (% PfCRTDd2 control), trans-stimulation, PfCRTDd2” value amounted to 102 ± 4.7 % PfCRTDd2 control in assay [4] (setting [8]) and 112 ± 0.9 % PfCRTDd2 control in assay [4] (setting [9]). For the same substance, the “PfCRT-mediated [3H]CQ transport, trans-stimulation (% PfCRTEcu1110 control)” value is listed as 128 ± 4.2 % PfCRTEcu1110 control in assay [5] (setting [6]) and 139 ± 4.6 % PfCRTEcu1110 control in assay [5] (setting [7]). For the same substance, the “[3H]CQ transport (% PfCRTDd2 control), trans-stimulation, PfCRTEcu1110” value in assay [5] (setting [8]) was 39 ± 1.5 % PfCRTEcu1110 control; in assay [5] (setting [9]), 42 ± 2.6 % PfCRTEcu1110 control.
With HVDDMPNA [HA-8], the “PfCRT-mediated [3H]CQ transport, cis-inhibition (% PfCRTDd2 control)” value in assay [1] ([test solute] = 0.5 mM) is listed as 48 ± 3.1 % PfCRTDd2 control; in assay [1] ([test solute] = 1 mM) it was 27 ± 0.4 % PfCRTDd2 control; in assay [1] ([test solute] = 2 mM), 20 ± 1.3 % PfCRTDd2 control. For the same substance, the results for the “PfCRT-mediated [3H]CQ transport, cis-inhibition (% PfCRTEcu1110 control)” value in assay [2] ([test solute] = 0.5 mM), in assay [2] ([test solute] = 1 mM) and in assay [2] ([test solute] = 2 mM) were 50 ± 2.1 % PfCRTEcu1110 control, 40 ± 2.5 % PfCRTEcu1110 control and 27 ± 1.4 % PfCRTEcu1110 control, respectively. Further, the “PfCRT-mediated [3H]CQ transport, trans-stimulation (% PfCRT3D7 control)” value in assay [3] (setting [6]) stood at 99 ± 3.8 % PfCRT3D7 control; in assay [3] (setting [7]), 97 ± 4.1 % PfCRT3D7 control. In addition, the “PfCRT-mediated [3H]CQ transport, trans-stimulation (% PfCRTDd2 control)” value in assay [4] (setting [6]) was determined as 96 ± 3.1 % PfCRTDd2 control; in assay [4] (setting [7]) it was 96 ± 2.1 % PfCRTDd2 control. The results for the “PfCRT-mediated [3H]CQ transport, trans-stimulation (% PfCRTEcu1110 control)” value in assay [5] (setting [6]) and in assay [5] (setting [7]) were 95 ± 2.2 % PfCRTEcu1110 control and 99 ± 3.8 % PfCRTEcu1110 control, respectively.
